Key:
[1] = tested on: Candida albicans (ATCC 90028) preformed biofilm; assay: C. albicans preformed (mature) biofilm, XTT reduction assay; format: cell-based; settings: for activity on the preformed biofilm: 24 hours on 48-hour biofilm
Protocol: The effect of the compounds on biofilm formation was measured by using a metabolic reduction assay (XTT kit). Briefly, 100 μl of the XTT reaction solution (Biological Industries, Israel Beit Haemek Ltd.) was added to each well, and microtiter plate was then incubated in the dark for 2 hours at 37° C. The colorimetric change (a reflection of the metabolic activity of the biofilm) was measured with a microtiter plate reader at 492 nm. The anti-biofilm formation activity effect of the tested agents was expressed as the percentage of the optical density (OD) of the treated wells compared to that of control (untreated) wells for the XTT assays. Light microscopic examination of biofilms formed in microtiter plates was performed in parallel by using an inverted microscope.
C. albicans biofilm was formed during 48 hours at 37° C. on the surfaces of microtiter plates by using the protocol described hereinabove, and the tested ABF agents were then added to the preformed biofilm. Following biofilm formation the spent medium and the nonadherent cells were removed by washing the biofilms three times in sterile PBS. The tested compounds, the ABF agent at 25, 50, 100 μg/ml, fluconazole at 31.25, 62.5, 125 μg/ml, in fresh RPMI 1640—farnesol at 150 μM (33 μg/ml), were added to selected wells of the microtiter plates. In addition, the effect of combination of farnesol (33 μg/ml) with fluconazole (31.25 μg/ml) and the ABF agent (25 or 50 μg/ml) with fluconazole (31.25 μg/ml) was examined on preformed biofilms. The plates were then incubated for 24 hours at 37° C. The effect of the compounds on pre-formed biofilms was then estimated by using the XTT reduction assay as described hereinabove.

[2] = tested on: Candida albicans (ATCC 90028); assay: C. albicans biofilm formation, XTT metabolic reduction assay; format: cell-based
Protocol: Candida albicans (ATCC 90028) was used to study the anti-biofilm formation activity of exemplary ABF agents according to embodiments of the present invention.
The C. albicans strain was propagated in yeast peptone dextrose (YPD) medium (1% wt/vol yeast extract, 2% wt/vol peptone, 2% wt/vol dextrose). Batches of medium (30 ml in 125 ml Erlenmeyer flask) were inoculated with material from Sabouraud dextrose agar (SDA) plates containing freshly grown C. albicans and incubated overnight in an orbital shaker (200 rpm) at 30° C. under aerobic conditions. C. albicans grew in the budding-yeast phase under these conditions. Cells were harvested and washed twice in sterile phosphate-buffered saline (PBS) (Oxoid Ltd, Basingstoke, Hampshire, UK). Thereafter the cells were resuspended in RPMI 1640 supplemented with L-glutamine and buffered with morpholinepropanesulfonic acid (MOPS) (Sigma Chemical Co., St. Louis, Mo.) and adjusted to the desired density after counting with a hematocytometer.
Biofilms of C. albicans were formed in the wells on commercially available presterilized, polystyrene, flat-bottomed, 96-well microtiter plates (Nunc—Nunclon™ Surface, Roskilde, Denmark). Biofilms were formed by pipetting 100 μl of the standardized cell suspensions (5×10^6 cells/ml) into selected wells of the microtiter plate and incubating the plate for 72 hours at 37° C. After 24 hours and 48 hours of the biofilm formation, the medium was replaced by fresh RPMI 1640 medium.
Working concentrations of farnesol (300 μM; 66 μg/ml) and the exemplary ABF agents TZD10 and TZD11 (200 μg/ml) were prepared in RPMI 1640 by using the stock solutions. […]
The effect of the compounds on biofilm formation was measured by using a metabolic reduction assay (XTT kit). […] The colorimetric change (a reflection of the metabolic activity of the biofilm) was measured with a microtiter plate reader at 492 nm. The anti-biofilm formation activity effect of the tested agents was expressed as the percentage of the optical density (OD) of the treated wells compared to that of control (untreated) wells for the XTT assays. […]

Structure (SMILES): CC(C)=CCC/C(C)=C/CC/C(C)=C/CO [farnesol]
- activity on the preformed biofilm [1]: no activity
- additive anti-biofilm effect of adding fluconazole ([1]; farnesol 33 μg/ml + fluconazole 31.25 μg/ml, pre-formed biofilm): no additive anti-biofilm effect
- reduction in the metabolic activity of the yeast cells (XTT) ([2]; 33 μg/ml, 72 hours): 43%
- additive effect of combination with fluconazole compared to farnesol alone ([2]; removed after 48 hours, fluconazole 31.25 μg/ml for another 24 hours): did not show any additive effect

Structure (SMILES): OC(Cn1cncn1)(Cn1cncn1)c1ccc(F)cc1F [fluconazole]
- activity on the preformed biofilm [1]: no activity
- reduction in the metabolic activity (XTT), biofilm formation ([2]; 31-125 μg/ml, 72 hours): up to 77%
